Laboratory results: ChEMBL document CHEMBL5338775, “Discovery of a Novel Class of PROTACs as Potent and Selective Estrogen Receptor α Degraders to Overcome Endocrine-Resistant Breast Cancer In Vitro and In Vivo” (J Med Chem, 2023)
pIC50, pKi: −log10 of the molar value. Calls of active or inactive are those of the source. The rule behind the calls is not given here. Residues, ends and D or L forms follow the SMILES beside them. *: point of attachment. Cbz = O=C(OCc1ccccc1)*

Columns and labels:
Estrogen receptor beta [1] = target: T1, Estrogen receptor beta (Homo sapiens, UniProt Q92731); assay: Binding affinity to ERbeta (unknown origin) assessed as relative binding affinity incubated for 2 hrs by fluorescence polarization assay relative to estradiol
[2] = Selectivity ratio of relative binding affinity for ERalpha (unknown origin) to relative binding affinity to ERbeta (unknown origin)
[3] = Selectivity index, ratio of Ki for ERalpha (unknown origin) to Ki for ERbeta (unknown origin)
[4] = target: T2, von Hippel-Lindau disease tumor suppressor/Estrogen receptor (Homo sapiens) (UniProt P03372+P40337); assay: PROTAC activity at VHL/ERalpha in ER-positive human MCF7 cells assessed as induction of ERalpha degradation at 1 to 5 uM incubated for 12 hrs by Western blot analysis; type: cell-based; conditions: dose 1-5 µM
Estrogen receptor = target: T3, Estrogen receptor (Homo sapiens, UniProt P03372)
T3 sequence (P03372 whole entry): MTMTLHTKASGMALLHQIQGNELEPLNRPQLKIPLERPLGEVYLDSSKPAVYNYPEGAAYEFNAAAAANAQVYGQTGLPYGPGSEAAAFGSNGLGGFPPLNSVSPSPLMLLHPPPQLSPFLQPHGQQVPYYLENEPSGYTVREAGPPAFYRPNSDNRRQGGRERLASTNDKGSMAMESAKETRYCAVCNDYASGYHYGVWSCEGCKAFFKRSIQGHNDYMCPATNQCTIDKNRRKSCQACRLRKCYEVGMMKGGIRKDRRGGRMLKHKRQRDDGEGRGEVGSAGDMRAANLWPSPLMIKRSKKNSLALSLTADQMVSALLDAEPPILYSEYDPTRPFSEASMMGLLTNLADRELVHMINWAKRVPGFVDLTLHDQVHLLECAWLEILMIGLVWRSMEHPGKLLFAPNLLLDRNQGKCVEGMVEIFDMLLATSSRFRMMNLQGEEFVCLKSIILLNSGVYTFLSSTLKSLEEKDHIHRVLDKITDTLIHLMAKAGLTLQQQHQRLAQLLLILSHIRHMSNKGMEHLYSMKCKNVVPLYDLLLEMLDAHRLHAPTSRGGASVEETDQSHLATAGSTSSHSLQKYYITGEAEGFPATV

Estrogen receptor beta [5] = target: T1, Estrogen receptor beta
MCF7 [6] = assay: cells; conditions: Homo sapiens, MCF7, 72 h
cells = conditions: Homo sapiens, Tamoxifen-resistant LCC2 cell, 72 h
T47D [7] = assay: cells; conditions: Homo sapiens, 72 h
T47D [8] = assay: cells; conditions: Homo sapiens, 72 h; remark: listed apart in the source
T47D [9] = assay: cells; conditions: Homo sapiens, 72 h; remark: listed apart in the source
MDA-MB-231 = assay: cells; conditions: Homo sapiens, MDA-MB-231, 72 h
in vitro = conditions: human, MCF-10A cells
[10] = target: T4, Estrogen receptor (Homo sapiens) (UniProt P03372); assay: Induction of ERalpha degradation in ER-positive human MCF7 cells at 1 uM incubated for 12 hrs by Western blot analysis; type: cell-based
T4 sequence (whole entry): T3 sequence (P03372 whole entry)

[11] = target: T4, Estrogen receptor (Homo sapiens); assay: Induction of ERalpha degradation in ER-positive human MCF7 cells at 1 uM incubated for 12 hrs in presence of (2S,4R)-1-[(2S)-2-amino-3,3-dimethylbutanoyl]-4-hydroxy-N-[(1S)-1-[4-(4-methyl-1,3-thiazol-5-yl)phenyl]ethyl]pyrrolidine-2-carboxamide by Western blot analysis; type: cell-based
[12] = target: T4, Estrogen receptor (Homo sapiens); assay: Induction of ERalpha degradation in ER-positive human MCF7 cells at 1 to 10 uM incubated for 12 hrs by Western blot analysis; type: cell-based; conditions: dose 1-10 µM
Estrogen receptor beta [13] = target: T1, Estrogen receptor beta; assay: Induction of ERbeta degradation in human NCI-H1975 cells at 1 to 10 uM incubated for 12 hrs by Western blot analysis; type: cell-based; conditions: dose 1-10 µM
MCF7 [14] = assay: Antitumor activity against human tamoxifen-sensitive MCF7 cells xenografted in BALB/c nude mouse assessed as inhibition of tumor growth at 5 micromol/kg, ip administered once every 2 days and measured every 2 days; type: functional, organism-based; conditions: dose 5.0 µmol/kg
Mus musculus = assay: In vivo protac activity at VHL/ERalpha in BALB/c nude mouse xenografted with human tamoxifen-sensitive MCF7 cells assessed as reduction in ERalpha protein levels in tumor at 5 micromol/kg, ip administered once every 2 days by Western blot analysis; type: functional, organism-based; conditions: dose 5.0 µmol/kg
MCF7 [15] = assay: Antitumor activity against human tamoxifen-sensitive MCF7 cells xenografted in BALB/c nude mouse assessed as increase in tumor necrosis area at 5 micromol/kg, ip administered once every 2 days by […] staining based analysis; type: functional, organism-based; conditions: dose 5.0 µmol/kg
MCF7 [16] = assay: Antitumor activity against human tamoxifen-sensitive MCF7 cells xenografted in BALB/c nude mouse assessed as reduction in cell proliferation at 5 micromol/kg, ip administered once every 2 days by ki67 staining based analysis; type: functional, organism-based; conditions: dose 5.0 µmol/kg
T47D [17] = assay: Inhibition of nascent GREB1 RNA synthesis in human T47D cells incubated for 6 hrs by 4-thiouridine incorporation assay; type: functional, cell-based
T47D [18] = assay: Inhibition of nascent IGFBP4 RNA synthesis in human T47D cells incubated for 6 hrs by 4-thiouridine incorporation assay; type: functional, cell-based
[19] = target: T4, Estrogen receptor (Homo sapiens); assay: Inhibition of ERalpha binding to DNA in human T47D cells assessed as reduction in protein occupancy incubated for 6 hrs by ChIP-seq analysis; type: cell-based
T47D [20] = assay: Inhibition of gene transcription in human T47D cells assessed as reduction in Pol II occupancy at GREB1 promoter region by ChIP-seq analysis; type: functional, cell-based
T47D [21] = assay: Inhibition of gene transcription in human T47D cells assessed as reduction in Pol II occupancy at IGFBP4 promoter region by ChIP-seq analysis; type: functional, cell-based
T47D [22] = assay: Inhibition of gene transcription in human T47D cells assessed as reduction in H3K27ac levels in GREB1 promoter region by ChIP-seq analysis; type: functional, cell-based
T47D [23] = assay: Inhibition of gene transcription in human T47D cells assessed as reduction in H3K27ac levels in IGFBP4 promoter region by ChIP-seq analysis; type: functional, cell-based
[24] = target: T2, von Hippel-Lindau disease tumor suppressor/Estrogen receptor (Homo sapiens); assay: PROTAC activity at VHL/wild type ERalpha in ER-positive human MCF7 cells assessed as induction of ERalpha degradation at 1 uM incubated for 12 hrs by Western blot analysis; type: cell-based
[25] = target: T2, von Hippel-Lindau disease tumor suppressor/Estrogen receptor (Homo sapiens); assay: PROTAC activity at VHL/wild type ERalpha in ER-positive human T47D cells assessed as induction of ERalpha degradation at 2 uM incubated for 12 hrs by Western blot analysis; type: cell-based
[26] = target: T2, von Hippel-Lindau disease tumor suppressor/Estrogen receptor (Homo sapiens); assay: PROTAC activity at VHL/ERalpha in ER-positive human tamoxifen-resistant LCC2 cells assessed as induction of ERalpha degradation at 2 uM incubated for 12 hrs by Western blot analysis; type: cell-based; conditions: tamoxifen-resistant LCC2 cell
[27] = target: T4, Estrogen receptor (Homo sapiens); assay: Induction of ERalpha degradation in ER-positive human MCF7 cells at 10 uM incubated for 12 hrs by Western blot analysis; type: cell-based
Estrogen receptor beta [28] = target: T1, Estrogen receptor beta; assay: Induction of ERbeta degradation in human NCI-H1975 cells at 10 uM incubated for 12 hrs by Western blot analysis; type: cell-based
[29] = target: T4, Estrogen receptor (Homo sapiens); assay: Induction of ERalpha degradation in ER-positive human MCF7 cells at 1 uM incubated for 12 hrs in presence of N-ethyl-5,6-bis(4-hydroxyphenyl)-N-(4-methoxyphenyl)-7-oxabicyclo[2.2.1]hept-5-ene-2-sulfonamide by Western blot analysis; type: cell-based
[30] = target: T4, Estrogen receptor (Homo sapiens); assay: Induction of ERalpha degradation in ER-positive human MCF7 cells at 5 uM incubated for 12 hrs by Western blot analysis; type: cell-based

T1 sequence (Q92731 whole entry): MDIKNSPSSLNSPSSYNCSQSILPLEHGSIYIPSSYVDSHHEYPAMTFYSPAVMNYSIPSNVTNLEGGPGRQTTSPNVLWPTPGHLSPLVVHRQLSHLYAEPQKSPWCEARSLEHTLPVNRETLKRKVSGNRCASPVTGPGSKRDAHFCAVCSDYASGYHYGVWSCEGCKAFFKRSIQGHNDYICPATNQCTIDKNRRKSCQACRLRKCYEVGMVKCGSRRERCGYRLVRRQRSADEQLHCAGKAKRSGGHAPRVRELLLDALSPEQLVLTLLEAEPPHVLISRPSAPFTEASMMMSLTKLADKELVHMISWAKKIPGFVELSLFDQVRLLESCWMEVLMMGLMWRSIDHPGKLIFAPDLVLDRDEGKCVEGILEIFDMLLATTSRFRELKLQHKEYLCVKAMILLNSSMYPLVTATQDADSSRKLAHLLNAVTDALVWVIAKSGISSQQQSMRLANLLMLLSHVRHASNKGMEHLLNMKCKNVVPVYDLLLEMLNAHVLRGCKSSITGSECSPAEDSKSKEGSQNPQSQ
T2 sequence (P40337 whole entry, looked up, one chain of several): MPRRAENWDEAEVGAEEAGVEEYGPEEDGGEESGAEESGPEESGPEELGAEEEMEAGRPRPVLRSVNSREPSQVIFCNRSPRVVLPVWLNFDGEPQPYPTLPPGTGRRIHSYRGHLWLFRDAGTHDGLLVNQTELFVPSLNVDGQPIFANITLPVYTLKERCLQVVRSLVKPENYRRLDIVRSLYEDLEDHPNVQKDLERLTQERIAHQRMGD

| Structure (SMILES) | RBA (Estrogen receptor beta [1]) [%] | Selectivity ratio [2] | Ratio Ki [3] | pKi (Estrogen receptor) | pKi (Estrogen receptor beta [5]) | pIC50 (MCF7 [6]) | pIC50 (cells) | pIC50 (T47D [7]) | pIC50 (T47D [8]) | pIC50 (T47D [9]) | pIC50 (MDA-MB-231) | IC50 at 72 h (in vitro) [µM] | Activity [24] | further results |
| --- | --- | --- | --- | --- | --- | --- | --- | --- | --- | --- | --- | --- | --- | --- |
| CCN(c1ccc(OCCCCCC(=O)N[C@H](C(=O)N2C[C@@H](O)C[C@H]2C(=O)N[C@@H](C)c2ccc(-c3scnc3C)cc2)C(C)(C)C)cc1)S(=O)(=O)C1CC2OC1C(c1ccc(O)cc1)=C2c1ccc(O)cc1 (some centres not stated) | 0.16 | 0.81 | 3.15 | 5.81 | 5.31 | < 4.30 | < 4.30 | < 4.30 | < 4.30 | < 4.30 | < 4.00 | > 100 |  | Activity [4]: inactive |
| CCN(c1ccc(OC)cc1)S(=O)(=O)C1CC2OC1C(c1ccc(O)cc1)=C2c1ccc(O)cc1 (configuration not stated) | 0.31 | 3.39 | 13.1 | 6.72 | 5.60 |  |  |  |  |  |  |  |  | Activity [10]: inactive; Activity [11]: inactive; Activity [12]: inactive; Activity (Estrogen receptor beta [13]): inactive |
| C[C@]12CC[C@@H]3c4ccc(O)cc4C[C@@H](CCCCCCCCC[S+]([O-])CCCC(F)(F)C(F)(F)F)[C@H]3[C@@H]1CC[C@@H]2O (some centres not stated) [FULVESTRANT] |  |  |  |  |  | 6.48 | 4.93 | 5.75 | 5.41 | 5.66 | < 4.00 |  |  | inhibition (MCF7 [14]): Active; Activity (Mus musculus): Active; Activity (MCF7 [15]): Active; Activity (MCF7 [16]): Active; inhibition (T47D [17]): Active; inhibition (T47D [18]): Active; inhibition [19]: Active; inhibition (T47D [20]): Active; inhibition (T47D [21]): Active; inhibition (T47D [22]): Active; inhibition (T47D [23]): Active |
| CCN(c1ccc(OCCCCCC(=O)N[C@H](C(=O)N2C[C@H](O)C[C@H]2C(=O)NCc2ccc(-c3scnc3C)cc2)C(C)(C)C)cc1)S(=O)(=O)C1CC2OC1C(c1ccc(O)cc1)=C2c1ccc(O)cc1 (some centres not stated) | 0.08 | 1.38 | 5.32 | 5.73 | 5.01 | 5.79 | 4.85 | 6.12 | 6.14 | 5.75 | < 4.00 | 5.17 | Active | Activity [25]: Active; Activity [26]: Active |
| COc1ccc(N(CC(F)(F)F)S(=O)(=O)C2CC3OC2C(c2ccc(OCCCCCC(=O)N[C@H](C(=O)N4C[C@H](O)C[C@H]4C(=O)N[C@@H](C)c4ccc(-c5scnc5C)cc4)C(C)(C)C)cc2)=C3c2ccc(O)cc2)cc1 (some centres not stated) | 0.03 | 2.67 | 10.3 | 5.60 | 4.58 | < 5.00 | < 4.52 | < 4.52 | < 4.52 | < 4.52 | < 4.00 | > 100 | inactive |  |
| COc1ccc(N(CC(F)(F)F)S(=O)(=O)C2CC3OC2C(c2ccc(O)cc2)=C3c2ccc(O)cc2)cc1 (configuration not stated) |  |  |  |  |  |  |  |  |  |  |  |  |  | Activity [27]: Active; Activity (Estrogen receptor beta [28]): Active |
| Cc1ncsc1-c1ccc([C@H](C)NC(=O)[C@@H]2C[C@H](O)CN2C(=O)[C@@H](NC(=O)CCCCCOc2ccc(N(CC(F)(F)F)S(=O)(=O)C3CC4OC3C(c3ccc(O)cc3)=C4c3ccc(O)cc3)cc2)C(C)(C)C)cc1 (some centres not stated) | 0.05 | 1.6 | 6.2 | 5.60 | 4.80 | < 4.30 | < 4.30 | < 4.30 | < 4.30 | < 4.30 | < 4.00 | > 100 |  | Activity [4]: inactive |
| Cc1ncsc1-c1ccc([C@H](C)NC(=O)[C@@H]2C[C@@H](O)CN2C(=O)[C@@H](N)C(C)(C)C)cc1 |  |  |  |  |  |  |  |  |  |  |  |  |  | Activity [10]: inactive; Activity [29]: inactive |
| Cc1ncsc1-c1ccc(CNC(=O)[C@@H]2C[C@@H](O)CN2C(=O)[C@@H](NC(=O)CCCCCOc2ccc(N(CC(F)(F)F)S(=O)(=O)C3CC4OC3C(c3ccc(O)cc3)=C4c3ccc(O)cc3)cc2)C(C)(C)C)cc1 (some centres not stated) | 0.04 | 1.75 | 6.78 | 5.54 | 4.71 | 6.96 | 4.89 | 4.90 | 4.95 | 5.03 | < 4.00 | 1.35 | Active | Activity [25]: Active; Activity [26]: Active |
| COc1ccc(N(CC(F)(F)F)S(=O)(=O)C2CC3OC2C(c2ccc(OCCCCCC(=O)N[C@H](C(=O)N4C[C@H](O)C[C@H]4C(=O)NCc4ccc(-c5scnc5C)cc4)C(C)(C)C)cc2)=C3c2ccc(O)cc2)cc1 (some centres not stated) | 0.07 | 1.57 | 6.08 | 5.73 | 4.95 | < 5.00 | < 4.52 | < 4.52 | < 4.52 | < 4.52 | < 4.00 | > 100 | inactive |  |
| CC(C)C[C@@H](C=O)NC(=O)[C@H](CC(C)C)NC(=O)[C@H](CC(C)C)NC(=O)OCc1ccccc1 (Cbz-Leu-Leu-Leu-aldehyde) |  |  |  |  |  |  |  |  |  |  |  |  |  | Activity [30]: inactive |
| CC/C(=C(\c1ccccc1)c1ccc(OCCN(C)C)cc1)c1ccccc1 |  |  |  |  |  |  |  |  |  |  |  |  |  | inhibition (MCF7 [14]): Active; Activity (Mus musculus): inactive; Activity (MCF7 [15]): Active; Activity (MCF7 [16]): Active |
